Experimental data published in PubChem BioAssay (NCI).
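Protocol summary: plate cells (96-well), add compound at 5 concentrations, incubate 48 h, interpolate endpoints linearly. Abbreviation: GI50, concentration required for 50% inhibition of growth. At the TGI there is no net growth.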

Legend:
Test in all cases: inhibition of tumour cell growth, NCI panel, 48 h
786-0 renal = system: 786-0 renal
A498 renal = system: A498 renal
A549 NSCLC = system: A549 NSCLC
ACHN renal = system: ACHN renal
BT-549 breast = system: BT-549 breast
CAKI-1 renal = system: CAKI-1 renal
CCRF-CEM leukemia = system: CCRF-CEM leukemia
COLO 205 colon = system: COLO 205 colon
DU-145 prostate = system: DU-145 prostate
EKVX NSCLC = system: EKVX NSCLC
HCC-2998 colon = system: HCC-2998 colon
HCT-116 colon = system: HCT-116 colon
HCT-15 colon = system: HCT-15 colon
HOP-62 NSCLC = system: HOP-62 NSCLC
HOP-92 NSCLC = system: HOP-92 NSCLC
HS 578T breast = system: HS 578T breast
HT29 colon = system: HT29 colon
IGROV1 ovarian = system: IGROV1 ovarian
K-562 leukemia = system: K-562 leukemia
KM12 colon = system: KM12 colon
LOX IMVI melanoma = system: LOX IMVI melanoma
M14 melanoma = system: M14 melanoma
MALME-3M melanoma = system: MALME-3M melanoma
MCF7 breast = system: MCF7 breast
MDA-MB-231 breast = system: MDA-MB-231 breast
MDA-MB-435 = system: MDA-MB-435
MOLT-4 leukemia = system: MOLT-4 leukemia
NCI-H226 lung = system: NCI-H226 lung

Work on CCN1C(=O)/C(=C/c2c(Cl)[nH]c3cc(C)c(OC)cc23)c2ccccc21 yielded a GI50 (786-0 renal) of 4.87 µM, a TGI (786-0 renal) of 21.3 µM and a GI50 (A498 renal) of 5.95 µM. For the same compound, the TGI (A498 renal) was 33 µM, the GI50 (A549 NSCLC) was 2.84 µM and the TGI (A549 NSCLC) was > 100 µM. The GI50 (ACHN renal) was 9.36 µM, the TGI (ACHN renal) was > 100 µM and the GI50 (BT-549 breast) was 0.5 µM. The TGI (BT-549 breast) was 6.31 µM, the GI50 (CAKI-1 renal) was 5.45 µM and the TGI (CAKI-1 renal) was > 100 µM. It also gave a GI50 (CCRF-CEM leukemia) of 1.76 µM, a TGI (CCRF-CEM leukemia) of 5.22 µM and a GI50 (COLO 205 colon) of 2.77 µM. The TGI (COLO 205 colon) was 15.4 µM, the GI50 (DU-145 prostate) was 3.29 µM and the TGI (DU-145 prostate) was > 100 µM. For the same compound, the GI50 (EKVX NSCLC) was 7.58 µM, the TGI (EKVX NSCLC) was 80.4 µM and the GI50 (HCC-2998 colon) was 2.4 µM. It also gave a TGI (HCC-2998 colon) of 7.15 µM, a GI50 (HCT-116 colon) of 3.78 µM and a TGI (HCT-116 colon) of 16.8 µM. The GI50 (HCT-15 colon) was 4.19 µM, the TGI (HCT-15 colon) was > 100 µM and the GI50 (HOP-62 NSCLC) was 5.6 µM. The TGI (HOP-62 NSCLC) was 30.8 µM, the GI50 (HOP-92 NSCLC) was 12.8 µM and the TGI (HOP-92 NSCLC) was 63.4 µM. It also gave a GI50 (HS 578T breast) of 2.86 µM, a TGI (HS 578T breast) of 7.23 µM and a GI50 (HT29 colon) of 1.55 µM. For the same compound, the TGI (HT29 colon) was > 100 µM, the GI50 (IGROV1 ovarian) was 2.07 µM and the TGI (IGROV1 ovarian) was > 100 µM. For the same compound, the GI50 (K-562 leukemia) was 3.03 µM, the TGI (K-562 leukemia) was > 100 µM and the GI50 (KM12 colon) was 0.483 µM. For the same compound, the TGI (KM12 colon) was 12.2 µM, the GI50 (LOX IMVI melanoma) was 9.72 µM and the TGI (LOX IMVI melanoma) was > 100 µM. It also gave a GI50 (M14 melanoma) of 4.42 µM, a TGI (M14 melanoma) of 53.9 µM and a GI50 (MALME-3M melanoma) of 14.9 µM. The TGI (MALME-3M melanoma) was 70.6 µM, the GI50 (MCF7 breast) was 0.409 µM and the TGI (MCF7 breast) was > 100 µM. For the same compound, the GI50 (MDA-MB-231 breast) was 2.43 µM, the TGI (MDA-MB-231 breast) was 54.1 µM and the GI50 (MDA-MB-435) was 0.315 µM. The TGI (MDA-MB-435) was 0.737 µM, the GI50 (MOLT-4 leukemia) was 4.36 µM and the TGI (MOLT-4 leukemia) was 35.2 µM. The GI50 (NCI-H226 lung) was 32.2 µM and the TGI (NCI-H226 lung) was > 100 µM.
